Laboratory results taken from publication PMC10608790, “Structural Diversity and Biological Activity of Cyanopeptolins Produced by Nostoc edaphicum CCNP1411” (Marine Drugs, 2023).

Columns and labels:
Format in all cases: biochemical
[1] = target: thrombin (Homo sapiens, UniProt P00734); assay: Thrombin inhibition assay; details: highest concentration in the assay 45 µg × mL−1
Description: (§1) The enzyme inhibitory activity of cyanopeptolins was assayed against trypsin [108], chymotrypsin, thrombin [109], and elastase as described before. In brief, the samples were prepared and serially diluted (1 mg, 1:1—1:10,000 times) in 1% DMSO; the standard inhibitors: aprotinin (trypsin and chymotrypsin) AEBSF 4-(2-aminoethyl)benzenesulfonyl fluoride hydrochloride (thrombin), elastatinal (elastase) (all from Sigma Aldrich; St. Louis, MO, USA) were also prepared in 1% DMSO. DMSO (1%) without the addition of the enzyme served as a negative control. All tests were carried out in triplicates. After the incubation of the assay mixtures, the absorbances were measured at 405 nm (Varioskan Flash Thermo Fisher Scientific OY, Vantaa, Finland). The reduction in enzyme activity greater than 50% was considered as significant.

[2] = test system: chymotrypsin; assay: Chymotrypsin inhibition assay; details: read-out: CHY (chymotrypsin) IC50
Description: as §1, with “In” for “The enzyme inhibitory activity of cyanopeptolins was assayed against trypsin [108], chymotrypsin, thrombin [109], and elastase as described before. In”

[3] = target: T1, trypsin (Bos taurus, UniProt P00760); assay: Trypsin inhibition assay; details: class symbol instead of IC50
T1 sequence (P00760 24-246): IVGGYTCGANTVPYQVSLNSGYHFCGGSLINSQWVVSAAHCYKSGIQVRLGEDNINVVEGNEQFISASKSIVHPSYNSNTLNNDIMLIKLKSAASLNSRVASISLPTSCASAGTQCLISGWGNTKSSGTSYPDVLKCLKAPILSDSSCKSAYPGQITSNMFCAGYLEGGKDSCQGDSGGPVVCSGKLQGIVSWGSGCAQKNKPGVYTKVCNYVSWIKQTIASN
Description: as §1

[4] = target: elastase (Sus scrofa, UniProt P00772); assay: Elastase inhibition assay; details: class symbol instead of IC50
Chain of elastase (P00772 27-266): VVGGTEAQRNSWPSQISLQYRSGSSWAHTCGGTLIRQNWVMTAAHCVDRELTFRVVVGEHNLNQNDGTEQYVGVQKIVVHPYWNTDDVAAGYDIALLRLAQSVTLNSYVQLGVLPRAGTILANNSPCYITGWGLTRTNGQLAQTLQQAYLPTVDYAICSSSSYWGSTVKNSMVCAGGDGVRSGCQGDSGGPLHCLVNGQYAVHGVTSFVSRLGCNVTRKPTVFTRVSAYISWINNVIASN
Description: as §1

CCCCCC(=O)N[C@@H](CC(=O)O)C(=O)N[C@@H]1C(=O)N[C@@H](Cc2ccccc2)C(=O)N[C@H]2CC[C@@H](O)N(C2=O)[C@@H](Cc2ccccc2)C(=O)N(C)[C@@H](Cc2ccccc2)C(=O)N[C@@H](C(C)C)C(=O)O[C@@H]1C [CP 981, [Thr + Phe + Ahp + Phe + MePhe + Val]Asp + HA]
TRB (thrombin) inhibition class [1]: − (not active (inhibition below 50%))
IC50 [2]: 3.92 µM
TRY (trypsin) inhibition class [3]: − (not active (inhibition below 50%))
E (elastase) inhibition class [4]: − (not active (inhibition below 50%))
